From publication PMC10631261 (Chemical Science, 2023)
Where two headings read alike, the source gives them in different places.

Experiments:
EGLN3 [1] = test: qRT-PCR of EGLN3 expression in Hep3B cells; assay type: cell-based, human; settings: for increase of EGLN3 expression relative to DMSO: 50 μM, 12 h, qRT-PCR
Method: (§1) 4. Methods for cell studies […]
(§2) in Minimum Essential Medium (MEM, GIBCO) with 10% fetal bovine serum (FBS, BI), 100 U/mL penicillin and 100 μg/mL streptomycin (1 × P/S, NCM Biotech). […]
(§3) and 100 μg/mL streptomycin (1 × P/S, NCM Biotech).
(§4) Quantitative PCR Analysis of Gene Expression […]
(§5) treated with vehicle (DMSO) or an inhibitor (at the concentrations indicated) for 12 h. Total RNA was isolated from cells and tissues using Trizol regents (Vazyme, China). 1 μg RNA was used for reverse transcription using HiScript III RT SuperMix for qPCR (Vazyme, China). cDNAs were amplified in a ChamQ Universal SYBR qPCR Master Mix (Vazyme, China). Quantitative PCR (qPCR) was performed on […]
(§6) a ABI QuantStudio 3 system.
(§7) The relative amount of mRNA was calculated after
(§8) 3T3-L1 derived adipocytes. […]

EGLN3 [2] = test: qRT-PCR of EGLN3 expression in 786-O cells; assay type: cell-based; settings: VHL-deficient 786-O cells
Method: as §1, §2, §3, §4, §5, §6, §7, §8

SLC2A1 = test: qRT-PCR of SLC2A1 expression in Hep3B cells; assay type: cell-based, human; settings: for increase of SLC2A1 levels: qPCR, relative to DMSO
Method: as §1, §2, §3, §4, §5, §6, §7, §8

CA9 = test: qRT-PCR of CA9 expression in Hep3B cells; assay type: cell-based, human; settings: for upregulation of CA9: qPCR, relative to DMSO
Method: as §1, §2, §3, §4, §5, §6, §7, §8

EPO = test: qRT-PCR of EPO expression in Hep3B cells; assay type: cell-based, human; settings: for upregulation of EPO: qPCR, relative to DMSO; for EPO levels in combination with FG-4592 compared with FG-4592 alone: with FG-4592, to a lesser extent than CA9
Method: as §1, §2, §3, §4, §5, §6, §7, §8

[3] = test system: 3T3-L1 derived adipocytes; test: Cellular triglyceride (TG) colorimetric assay; assay type: cell-based
Method: as §1, §2
(§9) and 100 μg/mL streptomycin (1 × P/S, NCM Biotech). […]
(§10) 3T3-L1 derived adipocytes.
(§11) 10% newborn calf serum (NCS, GIBCO), 100 U/mL penicillin and 100 μg/mL streptomycin (1 × P/S, NCM […]
(§12) The 3T3-L1 cells were strictly subcultured before they
Subcultures of 3T3 -L1 cells were routinely cultured in DMEM medium containing 10% NCS for two days, and then the cells were cultured in DMEM containing 10% FBS, 0.5 mM 3 -isobutyl-1-methylxanthine, 1 μM dexamethasone, 10 μg/mL insulin and 2 μM rosiglitazone for another two days. Subsequently, the cells were cultured in DMEM containing 10% FBS and 10 μg/mL insulin for two days. After these procedures, the cells were maintained in […]
To investigate the effect of inhibitors on adipocytes, 3T3-L1-derived adipocytes were treated with vehicle (DMSO) or with an inhibitor (at the concentrations indicated) for 48 h. […]
Cellular TG level assay for 3T3 -L1 derived adipocytes.
The 3T3-L1-derived adipocytes were washed with PBS, then the cells were lysed. And then, the cellular TG level was determined by using a cellular triglyceride assay kit (Applygen, China).
Oil Red O staining for 3T3-L1 derived adipocytes.

FIH [4] = molecular target: T1, FIH (Homo sapiens, UniProt Q9NWT6); settings: ESI Table S1; ref 19 (ESI); cited from earlier work
T1 construct: made in house
T1 sequence (Q9NWT6 whole entry): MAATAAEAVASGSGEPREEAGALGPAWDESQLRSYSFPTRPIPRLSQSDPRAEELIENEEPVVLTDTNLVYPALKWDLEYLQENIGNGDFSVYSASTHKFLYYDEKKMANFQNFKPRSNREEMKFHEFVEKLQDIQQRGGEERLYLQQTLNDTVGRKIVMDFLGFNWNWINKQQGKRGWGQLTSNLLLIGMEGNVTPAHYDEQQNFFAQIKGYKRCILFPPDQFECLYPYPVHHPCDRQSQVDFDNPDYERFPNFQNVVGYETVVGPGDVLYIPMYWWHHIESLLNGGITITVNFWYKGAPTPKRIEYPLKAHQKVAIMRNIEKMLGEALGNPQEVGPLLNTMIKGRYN

PHD2 = PHD2 (Homo sapiens, UniProt Q9GZT9); test: biochemical
Chain of PHD2 (Q9GZT9 181-426): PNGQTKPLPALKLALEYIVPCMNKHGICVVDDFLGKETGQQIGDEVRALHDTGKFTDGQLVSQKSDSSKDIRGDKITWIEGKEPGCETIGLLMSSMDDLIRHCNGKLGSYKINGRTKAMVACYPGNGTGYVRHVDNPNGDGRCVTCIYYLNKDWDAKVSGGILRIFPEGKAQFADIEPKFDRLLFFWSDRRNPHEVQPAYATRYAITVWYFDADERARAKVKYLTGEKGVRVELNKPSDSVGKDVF
Method: (§13) 3. Biochemical procedures
(§14) Protein production and purification
(§15) PAGE analysis) according to established procedures.
(§16) FIH, PHD2, AspH, JMJD5 and KDM4A inhibition assays
(§17) The in vitro FIH,1, 2 PHD2,1 AspH,38 JMJD536 and KDM4A39 inhibition assays were performed as […]
(§18) KDM4A). Synthetic peptide substrates were used: HIF-1α C-terminal transactivation domain fragment […]
(§19) H3Lys9 bearing three methyl groups at the N ϵ position, H3Lys4 substituted by an Ala and H3Lys14 substituted by an Ile residue) for KDM4A.39 Peptides were prepared as C-terminal amides by GL Biochem (Shanghai) Ltd. Peptide hydroxylation in the case of FIH, PHD2, AspH and JMJD5 (+16 Da mass shift) or peptide demethylation in the case of KDM4A ( -14 Da mass shift) was monitored by SPE-MS. […]

KDM4A = KDM4A (Homo sapiens, UniProt O75164); test: biochemical; assay type: biochemical
Chain of KDM4A (O75164 1-359): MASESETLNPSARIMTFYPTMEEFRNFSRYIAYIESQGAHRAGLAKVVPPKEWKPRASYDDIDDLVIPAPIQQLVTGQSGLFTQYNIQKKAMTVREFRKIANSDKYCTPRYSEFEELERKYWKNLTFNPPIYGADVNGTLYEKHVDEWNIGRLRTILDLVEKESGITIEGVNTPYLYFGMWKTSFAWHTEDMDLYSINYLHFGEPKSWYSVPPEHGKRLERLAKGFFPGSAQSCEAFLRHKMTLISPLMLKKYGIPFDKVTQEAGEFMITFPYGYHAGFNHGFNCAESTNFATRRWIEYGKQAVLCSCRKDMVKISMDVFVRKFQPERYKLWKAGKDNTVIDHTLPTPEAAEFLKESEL
Description: (§20) To investigate the potential of BNS for selective FIH inhibition, its selectivity was investigated with respect to other 2OG-dependent protein oxidising enzymes, that is PHD2, Jumonji-C domain-containing protein 5 (JMJD5), aspartate/asparagine-β-hydroxylase (AspH) and KDM4A, using reported SPE-MS inhibition assays.[58,61,69,70] In addition to PHD2 and KDM4A, we included AspH and JMJD5 in our selectivity studies, because AspH, like FIH, catalyses protein aspartate- and asparagine-residue hydroxylation (although in epidermal growth factor-like domains),[71,72] and because JMJD5 is structurally closely related to FIH.[73,74]
as §13, §14, §15, §16, §17, §18, §19

AspH [5] = molecular target: T2, AspH (Homo sapiens, UniProt Q12797); settings: cited from earlier work
T2 sequence (Q12797 315-758): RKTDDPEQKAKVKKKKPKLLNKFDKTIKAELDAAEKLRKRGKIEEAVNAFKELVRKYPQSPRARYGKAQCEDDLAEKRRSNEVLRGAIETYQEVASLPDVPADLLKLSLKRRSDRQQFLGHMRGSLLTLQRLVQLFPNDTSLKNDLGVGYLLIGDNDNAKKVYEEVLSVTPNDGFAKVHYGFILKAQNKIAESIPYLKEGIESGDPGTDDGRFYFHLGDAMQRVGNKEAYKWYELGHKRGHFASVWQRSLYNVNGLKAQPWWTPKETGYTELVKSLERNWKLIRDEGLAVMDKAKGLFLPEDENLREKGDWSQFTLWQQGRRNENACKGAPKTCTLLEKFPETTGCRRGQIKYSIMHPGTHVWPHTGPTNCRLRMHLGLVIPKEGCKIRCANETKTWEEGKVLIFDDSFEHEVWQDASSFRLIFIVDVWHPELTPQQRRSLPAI

JMJD5 [6] = molecular target: T3, JMJD5 (Homo sapiens, UniProt Q8N371); set-up: method as in PMID 37292060; settings: cited from earlier work
T3 sequence (Q8N371 whole entry): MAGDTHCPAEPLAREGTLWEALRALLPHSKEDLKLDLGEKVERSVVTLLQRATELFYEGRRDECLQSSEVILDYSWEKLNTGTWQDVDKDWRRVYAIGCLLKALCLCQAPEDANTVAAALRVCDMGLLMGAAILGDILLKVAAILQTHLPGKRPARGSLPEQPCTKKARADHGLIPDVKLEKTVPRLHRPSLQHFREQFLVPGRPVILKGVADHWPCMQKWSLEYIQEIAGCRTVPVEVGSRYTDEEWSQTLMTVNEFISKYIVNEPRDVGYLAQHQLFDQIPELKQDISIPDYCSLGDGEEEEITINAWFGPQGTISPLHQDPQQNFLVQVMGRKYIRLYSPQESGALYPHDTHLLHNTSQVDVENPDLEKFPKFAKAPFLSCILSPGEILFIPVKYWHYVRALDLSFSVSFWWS

FIH [7] = molecular target: T1, FIH; test: SPE-MS FIH inhibition assay; assay type: biochemical; settings: for FIH inhibition potency relative to 2,4-PDCA (more potent): IC50 comparison with 2,4-PDCA
Method: as §14, §15, §16, §17, §18, §19

AspH [8] = molecular target: T2, AspH; test: biochemical
Description: as §20, §13, §14, §15, §16, §17, §18, §19

JMJD5 [9] = molecular target: T3, JMJD5; test: biochemical; settings: read-out: JMJD5 IC50
Description: as §20, §13, §14, §15, §16, §17, §18, §19

[10] = test system: 3T3-L1 derived adipocytes; assay type: cell-based
Method: as §1, §2, §9, §10, §11, §12
Subcultures of 3T3 -L1 cells were routinely cultured in DMEM medium containing 10% NCS for two days, and then the cells were cultured in DMEM containing 10% FBS, 0.5 mM 3 -isobutyl-1-methylxanthine, 1 μM dexamethasone, 10 μg/mL insulin and 2 μM rosiglitazone for another two days. Subsequently, the cells were cultured in DMEM containing 10% FBS and 10 μg/mL insulin for two days. After these procedures, the cells were maintained in DMEM containing 10% FBS. T he last induction procedure was repeated 2 -3 times until lipid droplets […]
Viability Assay for 3T3-L1 derived adipocytes.
To investigate the effect of inhibitors on adipocytes, 3T3-L1-derived adipocytes were treated with vehicle (DMSO) or with an inhibitor (at the concentrations indicated) for 48 h. Cell viability was […]
Microplate Reader (Tecan) at OD 450 nm. […]

SMILES	increase of EGLN3 expression relative to DMSO (EGLN3 [1])	EGLN3 upregulation on co-administration with FG-4592 relative to compound alone (EGLN3 [1])	effect on EGLN3 gene expression (EGLN3 [2])	increase of SLC2A1 levels (SLC2A1)	upregulation of CA9 (CA9)	upregulation of EPO (EPO)	IC50 (PHD2)	IC50 (KDM4A)	IC50 (FIH [7])	FIH inhibition potency relative to 2,4-PDCA (more potent) (FIH [7])	selectivity for FIH inhibition over AspH inhibition (FIH [7]; as judged by IC50 values)	selectivity for FIH inhibition over KDM4A inhibition (FIH [7]; as judged by IC50 values)	IC50 (AspH [8])	IC50 (JMJD5 [9])	further results
COC(=O)C(=O)N[C@H](Cc1ccccc1)C(=O)OC [DM-NOFD, dimethyl N-oxalyl-D-phenylalanine]	~1.8 fold	no additional effect	upregulation of EGLN3	~1.3 fold	no response	no response									SLC2A1 gene expression in combination with FG-4592 (SLC2A1): no synergistic effect; CA9 levels in combination with FG-4592 compared with FG-4592 alone (CA9): increase; EPO levels in combination with FG-4592 compared with FG-4592 alone (EPO): increase; effect on TG levels ([3]; 100 μM): no effect
Cc1nc(C(=O)NCC(=O)O)c(O)c2ccc(Oc3ccccc3)cc12 [FG-4592]				~4 fold	~8 fold	~7 fold									effect on Hep3B EGLN3 levels (EGLN3 [1]; compound alone): no effect; IC50 (FIH [4]): > 100 µM
O=C(O)C(=O)N[C@H](Cc1ccccc1)C(=O)O [NOFD, N-oxalyl-D-phenylalanine, reference compound]							> 100 µM	14.1 µM							IC50 (AspH [5]): 15.5 µM; IC50 (JMJD5 [6]): > 100 µM
O=C(O)CNC(=O)C(=O)O [NOG, N-oxalylglycine, reference compound]									0.36 ± 0.03 µM						IC50 (KDM4A; 0.15 μM KDM4A, 10.0 μM 2OG, 10.0 μM H3 1–15 K9me3, SPE-MS): 22.1 ± 1.1 µM; IC50 (AspH [5]; SPE-MS, ref [58]): 1.1 ± 0.3 µM
O=C(O)Cc1csc(=NC(=O)C2CCN(S(=O)(=O)c3ccc(-c4ccccc4)cc3)C2)n1O (centres unmarked) [compound 38]	~2.5 fold	greater increase	upregulation of EGLN3				3.1 ± 0.1 µM	> 100 µM	0.26 ± 0.01 µM	~10 fold	> 100 fold	> 300 fold	30.2 ± 10.9 µM	31.9 ± 2 µM	melting point: 180 to 183 °C
O=C(O)Cc1csc(=NC(=O)C2CCN(S(=O)(=O)c3ccc(Oc4ccccc4)cc3)C2)n1O (centres unmarked) [compound 39]	~2.5 fold	no additional effect	upregulation of EGLN3				3.1 ± 0.2 µM	> 100 µM	0.29 ± 0.03 µM	~10 fold	> 100 fold	> 300 fold	29.8 ± 4.3 µM	8.6 ± 0.2 µM	melting point: 179 to 183 °C
O=C(O)Cc1csc(=NC(=O)C2CCN(S(=O)(=O)Cc3ccccc3)C2)n1O (centres unmarked) [compound 42]	~2.5 fold	greater increase	upregulation of EGLN3	~1.5 fold	no response	no response	6.9 ± 0.5 µM	> 100 µM	0.28 ± 0.02 µM	~10 fold	> 100 fold	> 300 fold	43.1 ± 18.7 µM	7.2 ± 2.8 µM	selectivity for FIH inhibition over JMJD5 inhibition (FIH [7]; as judged by IC50 values): ~25 fold; selectivity for FIH inhibition over PHD2 inhibition (FIH [7]; as judged by IC50 values): ~25 fold; SLC2A1 gene expression in combination with FG-4592 (SLC2A1): no synergistic effect; CA9 levels in combination with FG-4592 compared with FG-4592 alone (CA9): increase; EPO levels in combination with FG-4592 compared with FG-4592 alone (EPO): increase; reduction in cellular TG levels ([3]; 50 μM): ~30%; cytotoxicity (cell viability) [10]: Neither 42 and 42b exhibited apparent cytotoxicity
CC[C@H]1[C@@H](O)[C@@H]2[C@H](CC[C@]3(C)[C@@H]([C@H](C)CCC(=O)O)CC[C@@H]23)[C@@]2(C)CC[C@@H](O)C[C@@H]12 [obeticholic acid]															reduction in cellular TG levels ([3]; 20 μM): 25%
